Test results as given in EP3325465B1, “PESTICIDALLY ACTIVE PYRAZOLE DERIVATIVES” (Syngenta Participations AG, priority 2015, dated 2017).
Like-named read-outs stand apart in the source and are kept apart here.

Key:
Format in all cases: in vivo
[1] = test system: Spodoptera littoralis (Egyptian cotton leaf worm); test: Spodoptera littoralis cotton leaf disc spray test, L1 larvae; settings: foliar, 72 h
From the text: (§1) The pesticidal/insecticidal properties of the compounds according to embodiments 1 or 2 can be illustrated via the following tests: Spodoptera littoralis (Egyptian cotton leaf worm) • Cotton leaf discs were placed onto agar in 24-well microtiter plates and sprayed with aqueous test solutions prepared from 10'000 ppm DMSO stock solutions. After drying the leaf discs were infested with five L1 larvae. […] Plutella xylostella (Diamond back moth): 24-well microtiter plates with artificial diet were treated with aqueous test solutions prepared from 10'000 ppm DMSO stock solutions by pipetting. After drying, the plates were infested with L2 larvae (10 to 15 per well). The samples were assessed for mortality and growth inhibition in comparison to untreated samples 5 days after infestation. […] Diabrotica balteata, (Corn root worm) • Maize sprouts placed onto an agar layer in 24-well microtiter plates were treated with aqueous test solutions prepared from 10'000 ppm DMSO stock solutions by spraying. After drying, the plates were infested with L2 larvae (6 to 10 per well). […] Thrips tabaci (Onion thrips): Sunflower leaf discs were placed on agar in 24-well microtiter plates and sprayed with aqueous test solutions prepared from 10'000 ppm DMSO stock solutions. After drying the leaf discs were infested with a thrips population of mixed ages. The samples were assessed for mortality 6 days after infestation. […] Tetranychus urticae (Two-spotted spider mite): Bean leaf discs on agar in 24-well microtiter plates were sprayed with aqueous test solutions prepared from 10'000 ppm DMSO stock solutions. After drying the leaf discs were infested with a mite population of mixed ages. The samples were assessed for mortality on mixed population (mobile stages) 8 days after infestation. […] Euschistus heros (Neotropical Brown Stink Bug): • Two weeks old soybean plants were sprayed in a turn table spray chamber with the diluted spray solutions. After drying 2 soybean seeds were added and plants were infested with 10 N2 nymphs of the neotropical brown stink bug Euschistus heros in plastic test boxes. The samples were assessed for mortality in comparison to untreated samples 5 days after infestation. • The following compounds gave at least 80% mortality of Euschistus heros at an application rate of 12.5 ppm: Compounds 3 , 4 , 8 , 39 , 43 , 44 , 46 , 75 , 76 , 77 , 78 , 79 , 80 , 81 , 82 , 88 , 90 , 93 and 95 . Myzus persicae (Green peach aphid): Sunflower leaf discs were placed on agar in a 24-well microtiter plate and sprayed with test solutions at an application rate of 200 ppm. After drying, the leaf discs were infested with an aphid population of mixed ages. After an incubation period of 6 DAT, samples were checked for mortality. The following compounds gave at least 50% mortality of Myzus persicae: Compounds 3 , 4 , 8 , 43 , 44 , 75 , 76 , 77 , 80 , 81 , 90 and 92 . Myzus persicae (Green peach aphid): • Test compounds were applied by pipette into 24 well plates and mixed with Sucrose solution. Application rate: 12.5ppm. The plates were closed with a stretched parafilm. A plastic stencil with 24 holes is placed onto the plate and infested pea seedlings were placed directly on the Parafilm. The infested plate is closed with a gel blotting paper and another plastic stencil and then turned upside down. […]

[2] = test system: Plutella xylostella (Diamond back moth); test: Plutella xylostella artificial diet test, L2 larvae; settings: 120 h, application rate of 200 ppm, mortality and growth inhibition 5 days after infestation
From the text: as §1

[3] = test system: Diabrotica balteata, (Corn root worm); test: Diabrotica balteata maize sprout spray test, L2 larvae; settings: 96 h
From the text: as §1

[4] = test system: Thrips tabaci (Onion thrips); test: Thrips tabaci sunflower leaf disc spray test; settings: foliar, 144 h, application rate of 200 ppm, mortality 6 days after infestation, mixed ages
From the text: as §1

[5] = test system: Myzus persicae (Green peach aphid); test: Myzus persicae sucrose solution / Parafilm feeding test; settings: 120 h, read-out: mortality of Myzus persicae
From the text: as §1

[6] = test system: Tetranychus urticae (Two-spotted spider mite); test: Tetranychus urticae bean leaf disc spray test; settings: foliar, 192 h, application rate of 200 ppm, mortality on mixed population (mobile stages) 8 days after infestation
From the text: as §1

[7] = test system: Euschistus heros (Neotropical Brown Stink Bug); test: Euschistus heros soybean plant spray test, N2 nymphs; settings: 120 h, application rate of 12.5 ppm, 5 days after infestation, N2 nymphs, read-out: mortality of Euschistus heros
From the text: as §1

[8] = application rate of 200 ppm, 3 days after infestation, L1 larvae, read-out: mortality
[9] = application rate of 200 ppm, 4 days after infestation, L2 larvae, read-out: mortality
[10] = Application rate: 12.5ppm, sucrose solution, 5 days after infestation

Cn1nc(C(F)(F)C(F)(F)F)c(C(F)(F)F)c1-c1noc(-c2ccc(Cl)c(C(=O)NC3(C#N)CC3)c2)n1 [Compound 10, 2-Chloro-N-(1-cyanocyclopropyl)-5-[3-[2-methyl-5-(1,1,2,2,2-pentafluoroethyl)-4-(trifluoromethyl)pyrazol-3-yl]-1,2,4-oxadiazol-5-yl]benzamide]
≥ 80%: mortality at 200 ppm [1] | pest or weed control at 200 ppm [2] | mortality at 200 ppm [3] | pest or weed control at 200 ppm [4] | mortality at 12.5 ppm [5]

Cn1cc(-c2c(C(F)(F)F)c(C(F)(F)C(F)(F)F)nn2C)nc1-c1ccc(Cl)c(C(=O)NC2CC2)c1 [Compound 29, 2-chloro-N-cyclopropyl-5-[1-methyl-4-[2-methyl-5-(1,1,2,2,2-pentafluoroethyl)-4-(trifluoromethyl)pyrazol-3-yl]imidazol-2-yl]benzamide]
≥ 80%: mortality at 200 ppm [1, 8] | pest or weed control at 200 ppm [2] | mortality at 200 ppm [3, 9] | pest or weed control at 200 ppm [6] | mortality at 12.5 ppm [5, 10]

Cn1nc(C(F)(F)C(F)(F)F)c(C(F)(F)F)c1-c1cnn(-c2ccc(Cl)c(C(=O)NC3(C#N)CC3)c2)c1 [Compound 38, 2-chloro-N-(1-cyanocyclopropyl)-5-[4-[2-methyl-5-(1,1,2,2,2-pentafluoroethyl)-4-(trifluoromethyl)pyrazol-3-yl]pyrazol-1 - yl]benzamide]
≥ 80%: mortality at 12.5 ppm [5, 10]

Cn1nc(C(F)(F)C(F)(F)F)c(C(F)(F)F)c1-c1cc(-c2ccc(Cl)c(C(=O)NC3(C#N)CC3)c2)ns1 [Compound 46, 2-chloro-N-(1-cyanocyclopropyl)-5-[5-[2-methyl-5-(1,1,2,2,2-pentafluoroethyl)-4-(trifluoromethyl)pyrazol-3-yl]isothiazol-3-yl]benzamide]
≥ 80%: mortality at 200 ppm [1, 8] | mortality at 12.5 ppm [7]

Cn1nc(C(F)(F)C(F)(F)F)c(C(F)(F)F)c1-c1cc(-c2ccc(Cl)c(C(=O)NC3(C#N)CC3)c2)[nH]n1 [Compound 72, 2-chloro-N-(1-cyanocyclopropyl)-5-[3-[2-methyl-5-(1,1,2,2,2-pentafluoroethyl)-4-(trifluoromethyl)pyrazol-3-yl]-1H-pyrazol-5-yl]benzamide]
≥ 80%: mortality at 200 ppm [1, 8] | pest or weed control at 200 ppm [2] | mortality at 200 ppm [3, 9] | mortality at 12.5 ppm [5, 10]

Cn1nc(C(F)(F)C(F)(F)F)c(C(F)(F)F)c1-c1cc(-c2ccc(Cl)c(C(=O)NC3CCOC3=O)c2)on1 (stereo not shown) [Compound 78, 2-chloro-5-[3-[2-methyl-5-(1,1,2,2,2-pentafluoroethyl)-4-(trifluoromethyl)pyrazol-3-yl]isoxazol-5-yl]-N-(2-oxotetrahydrofuran-3-yl)benzamide]
≥ 80%: mortality at 200 ppm [1, 8] | mortality at 200 ppm [3, 9] | pest or weed control at 200 ppm [4] | pest or weed control at 200 ppm [6] | mortality at 12.5 ppm [7]

C#CCNC(=O)c1cc(-c2cc(-c3c(C(F)(F)F)c(C(F)(F)C(F)(F)F)nn3C)no2)ccc1Cl [Compound 79, 2-chloro-5-[3-[2-methyl-5-(1,1,2,2,2-pentafluoroethyl)-4-(trifluoromethyl)pyrazol-3-yl]isoxazol-5-yl]-N-prop-2-ynyl-benzamide]
≥ 80%: mortality at 200 ppm [1, 8] | pest or weed control at 200 ppm [2] | mortality at 200 ppm [3, 9] | pest or weed control at 200 ppm [4] | pest or weed control at 200 ppm [6] | mortality at 12.5 ppm [7]

C=C(Cl)CNC(=O)c1cc(-c2cc(-c3c(C(F)(F)F)c(C(F)(F)C(F)(F)F)nn3C)no2)ccc1Cl [Compound 82, 2-chloro-N-(2-chloroallyl)-5-[3-[2-methyl-5-(1,1,2,2,2-pentafluoroethyl)-4-(trifluoromethyl)pyrazol-3-yl]isoxazol-5-yl]benzamide]
≥ 80%: mortality at 200 ppm [1, 8] | pest or weed control at 200 ppm [2] | mortality at 200 ppm [3, 9] | pest or weed control at 200 ppm [4] | mortality at 12.5 ppm [7]

Cn1nc(C(F)(F)C(F)(F)F)c(C(F)(F)F)c1-c1cc(-c2ccc(Cl)c(C(=O)NC3(C(F)(F)F)CC3)c2)on1 [Compound 88, 2-chloro-5-[3-[2-methyl-5-(1,1,2,2,2-pentafluoroethyl)-4-(trifluoromethyl)pyrazol-3-yl]isoxazol-5-yl]-N-[1-(trifluoromethyl)cyclopropyl]benzamide]
≥ 80%: mortality at 200 ppm [1, 8] | pest or weed control at 200 ppm [2] | mortality at 200 ppm [3, 9] | pest or weed control at 200 ppm [4] | mortality at 12.5 ppm [7]

Cn1nc(C(F)(F)C(F)(F)F)c(C(F)(F)F)c1-c1cc(-c2ccc(Cl)c(C(=O)Nc3ccncc3)c2)on1 [Compound 89, 2-chloro-5-[3-[2-methyl-5-(1,1,2,2,2-pentafluoroethyl)-4-(trifluoromethyl)pyrazol-3-yl]isoxazol-5-yl]-N-(4-pyridyl)benzamide]
≥ 80%: mortality at 200 ppm [1, 8] | pest or weed control at 200 ppm [2] | mortality at 200 ppm [3, 9] | pest or weed control at 200 ppm [4] | pest or weed control at 200 ppm [6]

Cn1nc(C(F)(F)C(F)(F)F)c(C(F)(F)F)c1-c1cc(-c2ccc(Cl)c(C(N)=O)c2)on1 [Compound 94, 2-chloro-5-[3-[2-methyl-5-(1,1,2,2,2-pentafluoroethyl)-4-(trifluoromethyl)pyrazol-3-yl]isoxazol-5-yl]benzamide]
≥ 80%: mortality at 200 ppm [1, 8] | pest or weed control at 200 ppm [2] | mortality at 200 ppm [3, 9] | pest or weed control at 200 ppm [4] | pest or weed control at 200 ppm [6]

Cn1nc(C(F)(F)C(F)(F)F)c(C(F)(F)F)c1-c1cc(-c2ccc(Cl)c(C(=O)NC3(c4ccccn4)CC3)c2)on1 [Compound 95, 2-chloro-5-[3-[2-methyl-5-(1,1,2,2,2-pentafluoroethyl)-4-(trifluoromethyl)pyrazol-3-yl]isoxazol-5-yl]-N-[1-(2-pyridyl)cyclopropyl]benzamide]
≥ 80%: mortality at 200 ppm [1, 8] | pest or weed control at 200 ppm [2] | mortality at 200 ppm [3, 9] | pest or weed control at 200 ppm [4] | mortality at 12.5 ppm [7]

Cn1nc(C(F)(F)C(F)(F)F)c(C(F)(F)F)c1-c1cc(-c2ccc(Cl)c(C(=O)NCC(F)(F)F)c2)on1 [Compound 96, 2-chloro-5-[3-[2-methyl-5-(1,1,2,2,2-pentafluoroethyl)-4-(trifluoromethyl)pyrazol-3-yl]isoxazol-5-yl]-N-(2,2,2-trifluoroethyl)benzamide]
≥ 80%: mortality at 200 ppm [1, 8] | pest or weed control at 200 ppm [2] | mortality at 200 ppm [3, 9] | pest or weed control at 200 ppm [4] | mortality at 12.5 ppm [5, 10]

Cn1nc(C(F)(F)C(F)(F)F)c(C(F)(F)F)c1-c1cc(-c2ccc(Cl)c(C(=O)NCC(F)F)c2)on1 [Compound 97, 2-chloro-N-(2,2-difluoroethyl)-5-[3-[2-methyl-5-(1,1,2,2,2-pentafluoroethyl)-4-(trifluoromethyl)pyrazol-3-yl]isoxazol-5-yl]benzamide]
≥ 80%: mortality at 200 ppm [1, 8] | pest or weed control at 200 ppm [2] | mortality at 200 ppm [3, 9] | mortality at 12.5 ppm [5, 10]

C=C(C)CNC(=O)c1cc(-c2cc(-c3c(C(F)(F)F)c(C(F)(F)C(F)(F)F)nn3C)no2)ccc1Cl [Compound 98, 2-chloro-N-(2-methylallyl)-5-[3-[2-methyl-5-(1,1,2,2,2-pentafluoroethyl)-4-(trifluoromethyl)pyrazol-3-yl]isoxazol-5-yl]benzamide]
≥ 80%: mortality at 200 ppm [1, 8] | pest or weed control at 200 ppm [2] | mortality at 200 ppm [3, 9] | pest or weed control at 200 ppm [4] | pest or weed control at 200 ppm [6]
